Experimental data published in ChEMBL document CHEMBL5352406 (Eur J Med Chem, 2022).

Legend:
HCT-116 [1] = assay: Antiproliferative activity against human HCT-116 cells assessed as cell growth inhibition after 72 hrs by MTT assay; assay type: functional
SW480 = assay: Antiproliferative activity against human SW480 cells assessed as cell growth inhibition after 72 hrs by MTT assay; assay type: functional
MCF7 = assay: Antiproliferative activity against human MCF7 cells assessed as cell growth inhibition after 72 hrs by MTT assay; assay type: functional
Acetylcholinesterase = Acetylcholinesterase (Electrophorus electricus, UniProt O42275); assay: Inhibition of electric eel AChE using acetylthiocholine […] as substrate for 20 mins by Ellman's method
Cholinesterase = Cholinesterase (Equus caballus, UniProt P81908); assay: Inhibition of equine serum BuChE using […] as substrate for 20 mins by Ellman's method
[2] = molecular target: CDK9/cyclin T1 (Homo sapiens) (UniProt O60563+P50750); assay: Inhibition of CDK9/CyclinT1 (unknown origin) at 500 nM by ADP-Glo kinase assay relative to control; assay type: protein-complex assay
[3] = molecular target: CDK3/Cyclin E (Homo sapiens) (UniProt P24864+Q00526); assay: Inhibition of CDK3/Cyclin E1 (unknown origin) at 500 nM by ADP-Glo kinase assay relative to control; assay type: protein-complex assay
[4] = molecular target: T1, Cyclin-dependent kinase 5/CDK5 activator 1 (Homo sapiens) (UniProt Q00535+Q15078); assay: Inhibition of CDK5/p25 NCK (unknown origin) at 500 nM by ADP-Glo kinase assay relative to control; assay type: protein-complex assay
[5] = molecular target: T1, Cyclin-dependent kinase 5/CDK5 activator 1 (Homo sapiens); assay: Inhibition of CDK5/p35 NCK (unknown origin) at 500 nM by ADP-Glo kinase assay relative to control; assay type: protein-complex assay
[6] = molecular target: Cyclin-dependent kinase 4/cyclin D1 (Homo sapiens) (UniProt P11802+P24385); assay: Inhibition of CDK4/Cyclin D1 (unknown origin) at 500 nM by ADP-Glo kinase assay relative to control; assay type: protein-complex assay
[7] = molecular target: CDK4/Cyclin D3 (Homo sapiens) (UniProt P11802+P30281); assay: Inhibition of CDK4/Cyclin D3 (unknown origin) at 500 nM by ADP-Glo kinase assay relative to control; assay type: protein-complex assay
[8] = molecular target: CDK6/cyclin D3 (Homo sapiens) (UniProt P30281+Q00534); assay: Inhibition of CDK6/Cyclin D3 (unknown origin) at 500 nM by ADP-Glo kinase assay relative to control; assay type: protein-complex assay
[9] = molecular target: Cyclin-C/Cyclin-dependent kinase 19 (Homo sapiens) (UniProt Q9BWU1+P24863); assay: Inhibition of CDK19/Cyclin C (unknown origin) at 500 nM by ADP-Glo kinase assay relative to control; assay type: protein-complex assay
HCT-116 [10] = assay: Inhibition of colony formation in human HCT-116 cells treated for 24 hrs followed by replaced with fresh culture media for 10 days by Colony formation assay; assay type: functional, cell-based; conditions: dose 2-18 nM
HCT-116 [11] = assay: Induction of apoptosis in human HCT-116 cells assessed as viable cells at 10 nM measured after 48 hrs by Annexin V-FITC/PI assay (reference value: 88.5%); assay type: functional; conditions: read-out: Activity
HCT-116 [12] = assay: Induction of apoptosis in human HCT-116 cells assessed as early apoptotic cells at 10 nM measured after 48 hrs by Annexin V-FITC/PI assay (reference value: 3.16%); assay type: functional
HCT-116 [13] = assay: Induction of apoptosis in human HCT-116 cells assessed as late apoptotic cells at 10 nM measured after 48 hrs by Annexin V-FITC/PI assay (reference value: 6.06%); assay type: functional
HCT-116 [14] = assay: Induction of apoptosis in human HCT-116 cells assessed as early apoptotic cells at 20 nM measured after 48 hrs by Annexin V-FITC/PI assay (reference value: 3.16%); assay type: functional
HCT-116 [15] = assay: Cell cycle arrest in human HCT-116 cells assessed as accumulation of cells at S phase at 10 nM measured after 48 hrs by flow cytometry (reference value: 31.43%); assay type: functional
HCT-116 [16] = assay: Cell cycle arrest in human HCT-116 cells assessed as accumulation of cells at […] phase at 10 nM measured after 48 hrs by flow cytometry (reference value: 6.39%); assay type: functional
HCT-116 [17] = assay: Cell cycle arrest in human HCT-116 cells assessed as accumulation of cells at G0-G1 phase at 20 nM measured after 48 hrs by flow cytometry (reference value: 62.18%); assay type: functional
HCT-116 [18] = assay: Cell cycle arrest in human HCT-116 cells assessed as accumulation of cells at S phase at 20 nM measured after 48 hrs by flow cytometry (reference value: 31.43%); assay type: functional
HCT-116 [19] = assay: Cell cycle arrest in human HCT-116 cells assessed as accumulation of cells at […] phase at 20 nM measured after 48 hrs by flow cytometry (reference value: 6.39%); assay type: functional
[20] = Acute toxicity in po dosed Kunming mouse assessed as survival measured for 2 weeks; assay type: organism-based; conditions: in vivo
[21] = Acute toxicity in Kunming mouse assessed as survival at 46 mg/kg, po measured for 2 weeks; assay type: organism-based; conditions: in vivo
[22] = Acute toxicity in Kunming mouse assessed as survival at 105 mg/kg, po measured for 2 weeks; assay type: organism-based; conditions: in vivo
[23] = Acute toxicity in Kunming mouse assessed as survival at 159 mg/kg, po measured for 2 weeks; assay type: organism-based; conditions: in vivo
[24] = Acute toxicity in Kunming mouse assessed as body weight change at 20 to 105 mg/kg, po measured for 2 weeks; assay type: organism-based; conditions: in vivo, 336 h, dose 20-105 mg/kg
[25] = Half life in Sprague-Dawley rat at 2 mg/kg, iv; assay type: ADME, organism-based; conditions: in vivo
[26] = Half life in Sprague-Dawley rat at 20 mg/kg, po; assay type: ADME, organism-based; conditions: in vivo
[27] = Tmax in Sprague-Dawley rat at 2 mg/kg, iv; assay type: ADME, organism-based; conditions: in vivo
[28] = Tmax in Sprague-Dawley rat at 20 mg/kg, po; assay type: ADME, organism-based; conditions: in vivo
[29] = AUC (0 to t) in Sprague-Dawley rat at 2 mg/kg, iv; assay type: ADME, organism-based; parameters: dose 2 mg/kg, route iv; conditions: in vivo
[30] = AUC (0 to infinity) in Sprague-Dawley rat at 20 mg/kg, po; assay type: ADME, organism-based; parameters: dose 20 mg/kg, route po; conditions: in vivo
[31] = Clearance in Sprague-Dawley rat at 2 mg/kg, iv; assay type: ADME, organism-based; conditions: in vivo
[32] = Volume of distribution at steady state in Sprague-Dawley rat at 2 mg/kg, iv; assay type: ADME, organism-based; conditions: in vivo, read-out: Vdss
[33] = Toxicity in BALB/cA-nu mouse xenografted with human HCT116 cells assessed as behavioral changes at 10 mg/kg, intragastric administration for 21 days; assay type: organism-based, HCT-116; conditions: in vivo, po, 504 h, time 21 day
[34] = Toxicity in BALB/cA-nu mouse xenografted with human HCT116 cells assessed as liver injury by measuring ALT level at 10 mg/kg, intragastric administration for 21 days; assay type: organism-based, HCT-116; conditions: in vivo, po, 504 h, time 21 day
CDK9/cyclin T1 = CDK9/cyclin T1 (Homo sapiens, UniProt P50750)
Description: Inhibition of CDK9/CyclinT1 (unknown origin) by ADP-Glo kinase assay

[35] = molecular target: Cyclin-dependent kinase 1/cyclin B1 (Homo sapiens) (UniProt P06493+P14635); conditions: dose 500.0 nM
Description: Inhibition of CDK1/Cyclin B1 (unknown origin) at 500 nM by ADP-Glo kinase assay relative to control

[36] = molecular target: CDK1/Cyclin E (Homo sapiens) (UniProt P06493+P24864); conditions: dose 500.0 nM
Sequence of CDK1/Cyclin E (Homo sapiens) (P06493 whole entry, looked up): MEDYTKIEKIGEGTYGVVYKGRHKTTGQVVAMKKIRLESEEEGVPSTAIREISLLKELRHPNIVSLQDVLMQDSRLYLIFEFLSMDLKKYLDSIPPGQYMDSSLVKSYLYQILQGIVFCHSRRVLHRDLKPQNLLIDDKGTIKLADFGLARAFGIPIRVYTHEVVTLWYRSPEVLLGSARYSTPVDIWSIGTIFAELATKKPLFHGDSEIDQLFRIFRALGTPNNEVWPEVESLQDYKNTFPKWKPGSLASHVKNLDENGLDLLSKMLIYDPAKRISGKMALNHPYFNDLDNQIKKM
Sequence of CDK1/Cyclin E (Homo sapiens) (P24864 whole entry, looked up): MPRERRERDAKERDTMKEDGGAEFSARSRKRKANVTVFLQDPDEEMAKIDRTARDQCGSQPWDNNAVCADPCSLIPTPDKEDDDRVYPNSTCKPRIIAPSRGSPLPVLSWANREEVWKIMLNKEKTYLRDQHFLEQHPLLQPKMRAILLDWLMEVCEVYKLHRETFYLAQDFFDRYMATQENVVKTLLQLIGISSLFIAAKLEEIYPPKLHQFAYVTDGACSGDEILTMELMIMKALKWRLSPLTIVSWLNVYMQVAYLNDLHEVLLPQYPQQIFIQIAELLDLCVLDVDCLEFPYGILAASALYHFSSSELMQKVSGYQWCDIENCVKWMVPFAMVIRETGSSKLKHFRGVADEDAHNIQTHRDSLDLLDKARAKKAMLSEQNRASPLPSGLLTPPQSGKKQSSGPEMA
Description: Inhibition of CDK1/Cyclin E1 (unknown origin) at 500 nM by ADP-Glo kinase assay relative to control

T1 sequence (Q00535 whole entry): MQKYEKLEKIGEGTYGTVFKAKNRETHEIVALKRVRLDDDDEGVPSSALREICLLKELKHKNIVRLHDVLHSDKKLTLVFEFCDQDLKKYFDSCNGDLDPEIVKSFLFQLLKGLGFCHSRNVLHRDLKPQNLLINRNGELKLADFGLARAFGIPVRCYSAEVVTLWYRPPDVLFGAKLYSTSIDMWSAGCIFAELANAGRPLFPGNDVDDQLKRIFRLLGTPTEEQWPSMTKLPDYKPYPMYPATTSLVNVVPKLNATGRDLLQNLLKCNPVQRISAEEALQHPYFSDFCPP
T1 sequence (Q15078 99-307 partner limits assumed): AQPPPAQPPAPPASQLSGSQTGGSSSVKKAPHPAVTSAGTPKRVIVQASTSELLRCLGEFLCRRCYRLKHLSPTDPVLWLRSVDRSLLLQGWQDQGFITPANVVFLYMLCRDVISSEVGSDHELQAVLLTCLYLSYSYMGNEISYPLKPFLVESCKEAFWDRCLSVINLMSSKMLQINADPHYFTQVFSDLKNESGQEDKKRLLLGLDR
Sequence of Cholinesterase (P81908 whole entry): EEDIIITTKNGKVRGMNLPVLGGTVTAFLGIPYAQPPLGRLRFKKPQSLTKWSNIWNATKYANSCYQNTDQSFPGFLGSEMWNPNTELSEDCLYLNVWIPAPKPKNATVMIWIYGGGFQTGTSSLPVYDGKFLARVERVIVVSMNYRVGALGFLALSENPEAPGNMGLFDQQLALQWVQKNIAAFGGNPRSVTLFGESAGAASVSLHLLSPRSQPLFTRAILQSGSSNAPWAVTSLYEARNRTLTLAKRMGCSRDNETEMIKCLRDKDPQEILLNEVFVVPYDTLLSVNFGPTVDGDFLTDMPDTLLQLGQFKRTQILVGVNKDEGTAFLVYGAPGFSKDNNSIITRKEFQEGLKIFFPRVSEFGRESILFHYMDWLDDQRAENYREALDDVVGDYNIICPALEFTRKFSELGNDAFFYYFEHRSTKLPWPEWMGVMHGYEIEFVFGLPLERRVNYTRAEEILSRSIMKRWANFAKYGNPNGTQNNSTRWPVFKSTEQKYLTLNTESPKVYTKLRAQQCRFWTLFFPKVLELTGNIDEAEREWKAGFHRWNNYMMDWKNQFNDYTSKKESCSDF
Sequence of CDK9/cyclin T1 (O60563 whole entry): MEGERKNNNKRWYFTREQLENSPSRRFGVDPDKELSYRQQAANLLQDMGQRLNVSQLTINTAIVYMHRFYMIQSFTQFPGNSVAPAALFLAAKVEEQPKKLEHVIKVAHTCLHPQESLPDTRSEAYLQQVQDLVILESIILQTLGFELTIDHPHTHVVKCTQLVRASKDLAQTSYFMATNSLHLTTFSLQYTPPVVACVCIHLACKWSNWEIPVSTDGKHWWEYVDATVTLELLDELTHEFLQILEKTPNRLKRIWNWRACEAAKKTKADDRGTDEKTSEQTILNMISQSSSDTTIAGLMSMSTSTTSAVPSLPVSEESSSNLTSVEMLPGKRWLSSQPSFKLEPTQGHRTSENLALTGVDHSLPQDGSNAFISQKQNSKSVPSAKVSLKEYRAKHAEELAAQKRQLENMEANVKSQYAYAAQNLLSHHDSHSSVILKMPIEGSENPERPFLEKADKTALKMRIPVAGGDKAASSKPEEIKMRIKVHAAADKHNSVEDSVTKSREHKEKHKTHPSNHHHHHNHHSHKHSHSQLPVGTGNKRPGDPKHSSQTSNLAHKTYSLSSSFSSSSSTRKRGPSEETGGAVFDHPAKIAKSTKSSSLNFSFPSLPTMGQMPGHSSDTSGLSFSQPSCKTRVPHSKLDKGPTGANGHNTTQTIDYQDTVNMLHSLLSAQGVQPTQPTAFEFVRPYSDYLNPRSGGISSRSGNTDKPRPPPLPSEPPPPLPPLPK
Sequence of CDK9/cyclin T1 (P50750 whole entry): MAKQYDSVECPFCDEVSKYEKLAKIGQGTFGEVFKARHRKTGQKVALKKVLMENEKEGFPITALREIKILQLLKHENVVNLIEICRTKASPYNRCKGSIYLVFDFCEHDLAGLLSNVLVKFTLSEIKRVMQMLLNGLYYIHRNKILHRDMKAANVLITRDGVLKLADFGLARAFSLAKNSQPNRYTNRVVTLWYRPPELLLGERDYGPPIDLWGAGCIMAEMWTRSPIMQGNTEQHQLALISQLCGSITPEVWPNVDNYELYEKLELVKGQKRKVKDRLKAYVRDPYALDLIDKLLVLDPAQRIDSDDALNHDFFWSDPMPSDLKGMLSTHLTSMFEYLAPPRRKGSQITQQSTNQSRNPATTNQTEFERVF
Sequence of CDK3/Cyclin E (Homo sapiens) (P24864 whole entry, looked up): as the sequence (P24864 whole entry, looked up) above
Sequence of CDK3/Cyclin E (Homo sapiens) (Q00526 whole entry, looked up): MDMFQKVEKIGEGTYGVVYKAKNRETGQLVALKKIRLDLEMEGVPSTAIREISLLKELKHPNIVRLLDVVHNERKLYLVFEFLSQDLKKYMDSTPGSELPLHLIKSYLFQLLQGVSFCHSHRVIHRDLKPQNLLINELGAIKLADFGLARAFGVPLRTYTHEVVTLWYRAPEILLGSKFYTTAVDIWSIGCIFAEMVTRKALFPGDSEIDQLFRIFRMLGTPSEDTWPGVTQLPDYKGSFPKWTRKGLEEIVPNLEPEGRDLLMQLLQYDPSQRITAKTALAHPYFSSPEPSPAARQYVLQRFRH
Sequence of Acetylcholinesterase (O42275 whole entry): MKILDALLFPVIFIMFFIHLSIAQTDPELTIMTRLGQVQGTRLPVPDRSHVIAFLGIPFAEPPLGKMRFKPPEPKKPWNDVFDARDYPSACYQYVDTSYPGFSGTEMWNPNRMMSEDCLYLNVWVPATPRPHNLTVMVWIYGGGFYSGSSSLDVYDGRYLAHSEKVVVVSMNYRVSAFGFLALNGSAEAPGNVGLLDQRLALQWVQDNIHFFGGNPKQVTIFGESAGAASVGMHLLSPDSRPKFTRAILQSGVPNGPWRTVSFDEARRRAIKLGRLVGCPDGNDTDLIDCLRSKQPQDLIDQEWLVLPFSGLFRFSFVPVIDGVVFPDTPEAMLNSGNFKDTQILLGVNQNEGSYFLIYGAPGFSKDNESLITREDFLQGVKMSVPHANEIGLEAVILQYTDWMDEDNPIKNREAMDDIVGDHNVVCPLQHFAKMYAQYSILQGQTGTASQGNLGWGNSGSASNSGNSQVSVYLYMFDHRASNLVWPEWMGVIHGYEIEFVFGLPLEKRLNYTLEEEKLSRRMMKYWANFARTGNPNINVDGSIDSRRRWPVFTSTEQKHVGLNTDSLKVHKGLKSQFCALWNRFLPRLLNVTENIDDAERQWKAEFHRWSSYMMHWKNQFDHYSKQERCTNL
Sequence of Cyclin-dependent kinase 1/cyclin B1 (Homo sapiens) (P06493 whole entry, looked up): as the sequence (P06493 whole entry, looked up) above
Sequence of Cyclin-dependent kinase 1/cyclin B1 (Homo sapiens) (P14635 whole entry, looked up): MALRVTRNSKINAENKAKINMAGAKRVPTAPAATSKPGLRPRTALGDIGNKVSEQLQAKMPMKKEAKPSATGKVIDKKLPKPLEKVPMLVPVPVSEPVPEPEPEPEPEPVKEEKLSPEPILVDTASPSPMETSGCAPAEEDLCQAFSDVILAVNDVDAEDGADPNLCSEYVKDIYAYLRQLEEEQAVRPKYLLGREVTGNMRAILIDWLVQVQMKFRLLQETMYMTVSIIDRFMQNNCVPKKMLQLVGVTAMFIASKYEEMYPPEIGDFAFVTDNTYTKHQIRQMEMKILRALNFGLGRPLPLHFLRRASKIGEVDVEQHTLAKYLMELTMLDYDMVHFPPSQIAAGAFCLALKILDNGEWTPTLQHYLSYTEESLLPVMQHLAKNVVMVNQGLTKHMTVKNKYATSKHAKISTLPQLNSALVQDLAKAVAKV

In the case of `Cl.N[C@H]1CCN(c2c3c(nc4ccc(-c5ccnc(NC(=O)C6CC6)n5)cc24)CCCCC3)C1`, the GI50 (HCT-116 [1]) is reported as 6 nM, the GI50 (SW480) is reported as 13 nM and the GI50 (MCF7) is reported as 6 nM. For the same compound, the IC50 (Acetylcholinesterase) was 19000 nM, the IC50 (Cholinesterase) was 2770 nM and the inhibition [2] was 99.8%. It also gave an inhibition [3] of 65.5%, an inhibition [4] of 64.5% and an inhibition [5] of 41.4%. The inhibition [6] was 31.6%, the inhibition [7] was 29.4% and the inhibition [8] was 16.6%. For the same compound, the inhibition [9] was 12.9%, the inhibition (HCT-116 [10]) was “Dose-Dependent Effect” and the viability at 0.01 µM (HCT-116 [11]) was 74%. The Activity (HCT-116 [12]) was 16.3%, the Activity (HCT-116 [13]) was about 7.47% and the Activity (HCT-116 [14]) was 32.6%. The Activity (HCT-116 [15]) was 42.75%, the Activity (HCT-116 [16]) was 10.6% and the Activity (HCT-116 [17]) was 37.51%. It also gave an Activity (HCT-116 [18]) of 49.38%, an Activity (HCT-116 [19]) of 13.11% and an LD50 at 336 h [20] of 104 mg/kg. It also gave a survival at 336 h [21] of 100%, a survival at 336 h [22] of 50% and a survival at 336 h [23] of 0%. For the same compound, the Activity [24] was “Non-Toxic”, the half-life [25] was 27.7 min and the half-life [26] was 106 min. For the same compound, the Tmax [27] was 4.98 min, the Tmax [28] was 60 min and the AUC(0-t) [29] was 0.11 µg·h/mL. It also gave an AUC(0-inf) [30] of 0.316 µg·h/mL, a clearance [31] of 18.7 L/h/kg and a Vd [32] of 12.6 L/kg. For the same compound, the Activity [33] was “Non-Toxic”, the Activity [34] was “Non-Toxic” and the IC50 (CDK9/cyclin T1) was 2.41 nM. For the same compound, the inhibition [35] was 77.3% and the inhibition [36] was 48.6%.
